Where a SMILES comes first, the peptide text is derived from it. Bridges are numbered along the chain shown (N, C = ends). [ ]: non-standard residue; d: D form. The star is where a group is joined. Myristoyl = CCCCCCCCCCCCCC(=O)*; Cha = N[C@@H](CC1CCCCC1)C(=O)O; pGlu = O=C1CC[C@@H](C(=O)O)N1; NHPhenethyl = c1ccc(CCN*)cc1; Nle = CCCC[C@H](N)C(=O)O; AEEA = NCCOCCOCC(=O)O
How the values were obtained:
[1] = Plasma Stability Assay (LC-MS); type: in vitro ADME; conditions: male, Sprague-Dawley, heparinized rat plasma, 37° C., Table 3, read-out: Plasma stability t½
Experimental: • Working solution: 1 mg/mL test article is prepared in Milli-Q water • Extraction solution: Methanol:Acetonitrile:Water (1:1:1) with 0.1% Formic Acid and 400 ng/mL Glyburide. • Plasma: Male Sprague-Dawley rat plasma (with sodium heparin), purchased from Bioreclamation LLC (Liverpool, N.Y.). • Whole blood: Male Sprague Dawley whole blood (with sodium heparin), purchased from Bioreclamation LLC (Liverpool, N.Y.) • Lung homogenate: Male rat Sprague Dawley lung was purchased from Bioreclamation LLC (Liverpool, N.Y.). The lung was homogenized using polytron homogenizer after addition of 5× volume of 1×PBS. The homogenate was centrifuged at 9000 rpm for 10 min at 4° C. The supernatant was centrifuged again at 3000 rpm for 30 min to make a clear supernatant. Protein concentration was determined using a commercial kit (Pierce, Thermo Scientific). Sample Preparation Procedure:
Test article was prepared in one of the following biological matrices: heparinized rat plasma, heparinized rat whole blood or lung homogenate. The plasma and whole blood sample was prepared at 5000 ng/mL by adding 5 uL of 1 mg/mL Working solution to 995 uL of rat plasma or whole blood. Lung homogenate samples were prepared by diluting lung homogenate to 1 mg/ml protein concentration with phosphate buffered saline (PBS), followed by addition of 5 uL Working solution to 995 uL diluted lung homogenate. The samples were incubated at 37° C. with gentle shaking (65˜75 rpm) in a water bath incubator. At times 0 min, 5 min, 15 min, 30 min, 60 min, 120 and 240 min, 25 uL aliquots of incubation samples were transferred to 96-well plate and immediately protein precipitated using 150 uL of Extraction solution. After completion of incubation experiment, the sample plate was centrifuged at 4000 rpm at 4° C. for 10 minutes. Afterwards, a pipetting device (Tecan Temo) was used to tranfer the supernatants to another plate and add 50 uL of water to all samples. The plate was vortexed prior to LC-MS analysis. • LC-MS Analysis of Stability Samples • HPLC: Agilent 1290 HPLC with autosampler • Column: MAC-MOD ACE C18, 3 μm, 30 mm×2.1 mm i.d. • Mobile phase A: 0.1% Formic acid in acetonitrile • Mobile phase B: 0.1% Formic acid in water Gradient Program: […]

in vitro = conditions: rat, not told
Experimental: The slope of this line, k, was determined by linear regression (Microsoft Excel). • Stability half-life was then calculated by the formula, t ½=0.693÷k Surrogate Activity-Based Plasma Stability Assay:
The calcium flux protocol described above was followed, with the following changes. The peptides were also incubated with 5% rat plasma (Bioreclamation # [sequence]-M, Na Heparin-treated). Readings were taken at time points t0 and t24 hrs, after incubation in a 37° C. tissue culture incubator. Peptide plasma half-life in minutes was estimated by calculating the following:
2) Calculate slope of value above and

[2] = Surrogate Activity based Plasma stability t½
[3] = Surrogate activity-based Plasma stability t½

Row | SMILES | half-life at 5000 ng/mL [1] [h] | half-life (in vitro; [2]) [h] | half-life (in vitro; [3]) [h]
1 | CCCC[C@@H]1NC(=O)[C@@H]2CCCN2C(=O)CNC(=O)[C@H](CCCCN)NC(=O)[C@H](Cc2c[nH]cn2)NC(=O)[C@@H](NC(=O)[C@H](CC(C)C)NC(=O)[C@H](CCCNC(=N)N)NC(=O)[C@@H]2CCCN2C(=O)[C@H](CCCNC(=N)N)NC(=O)[C@@H]2CCC(=O)N2)CSSC[C@@H](C(=O)NCCc2ccccc2)NC1=O [Example 12, pE-R-P-R-L-C-H-K-G-P-Nle-C-Phenethylamine] ([pGlu]RPRLCHKGP[Nle]C-NHPhenethyl; disulfide 6-12) | 0.898 | 1.6 | 1.56
2 | N=C(N)NCCC[C@H](NC(=O)[C@@H]1CCCN1C(=O)[C@H](CCCNC(=N)N)NC(=O)[C@@H]1CCC(=O)N1)C(=O)N[C@@H](CC1CCCCC1)C(=O)N[C@H]1CSSC[C@@H](C(=O)N[C@@H](Cc2ccccc2)C(=O)O)NC(=O)[C@H](CC2CCCCC2)NC(=O)[C@@H]2CCCN2C(=O)CNC(=O)[C@H](CCCCN)NC(=O)[C@H](Cc2c[nH]cn2)NC1=O [Example 14, pE-R-P-R-Cha-C-H-K-G-P-Cha-C-F-OH] ([pGlu]RPR[Cha]CHKGP[Cha]CF-OH; disulfide 6-12) | 1.05 | 1.42 | 1.42
3 | CCCCCCCCCCCCCC(=O)NCCOCCOCC(=O)NCCOCCOCC(=O)N[C@@H](CCC(N)=O)C(=O)N[C@@H](CCCNC(=N)N)C(=O)N1CCC[C@H]1C(=O)N[C@@H](CCCNC(=N)N)C(=O)N[C@@H](CC(C)C)C(=O)N[C@H]1CSSC[C@@H](C(=O)N[C@H](Cc2ccccc2)C(=O)O)NC(=O)[C@H](CCCC)NC(=O)[C@@H]2CCCN2C(=O)CNC(=O)[C@H](CCCCN)NC(=O)[C@H](Cc2c[nH]cn2)NC1=O [Example 58, Myristoyl-O2Oc-O2Oc-Q-R-P-R-L-C-H-K-G-P-Nle-C-f-OH] ({Myristoyl-AEEA-AEEA}-QRPRLCHKGP[Nle]C[dF]-OH; disulfide 6-12) |  |  | > 16.7
4 | CCCCCCCCCCCCCC(=O)NCCOCCOCC(=O)NCCOCCOCC(=O)NCCOCCOCC(=O)N[C@@H](CCC(N)=O)C(=O)N[C@@H](CCCNC(=N)N)C(=O)N1CCC[C@H]1C(=O)N[C@@H](CCCNC(=N)N)C(=O)N[C@@H](CC(C)C)C(=O)N[C@H]1CSSC[C@@H](C(=O)N[C@H](Cc2ccccc2)C(=O)O)NC(=O)[C@H](CCCC)NC(=O)[C@@H]2CCCN2C(=O)CNC(=O)[C@H](CCCCN)NC(=O)[C@H](Cc2c[nH]cn2)NC1=O [Example 59, Myristoyl-O2Oc-O2Oc-O2Oc-Q-R-P-R-L-C-H-K-G-P-Nle-C-f-OH] ({Myristoyl-AEEA-AEEA-AEEA}-QRPRLCHKGP[Nle]C[dF]-OH; disulfide 6-12) |  |  | > 16.7
5 | CCCCCCCCCCCCCC(=O)NCCOCCOCC(=O)NCCOCCOCC(=O)NCCOCCOCC(=O)NCCOCCOCC(=O)N[C@@H](CCC(N)=O)C(=O)N[C@@H](CCCNC(=N)N)C(=O)N1CCC[C@H]1C(=O)N[C@@H](CCCNC(=N)N)C(=O)N[C@@H](CC(C)C)C(=O)N[C@H]1CSSC[C@@H](C(=O)N[C@H](Cc2ccccc2)C(=O)O)NC(=O)[C@H](CCCC)NC(=O)[C@@H]2CCCN2C(=O)CNC(=O)[C@H](CCCCN)NC(=O)[C@H](Cc2c[nH]cn2)NC1=O [Example 60, Myristoyl-O2Oc-O2Oc-O2Oc-O2Oc-Q-R-P-R-L-C-H-K-G-P-Nle-C-f-OH] ({Myristoyl-AEEA-AEEA-AEEA-AEEA}-QRPRLCHKGP[Nle]C[dF]-OH; disulfide 6-12) |  |  | > 16.7
6 | CCCCCCCCCCCCCC(=O)NCCCC[C@@H]1NC(=O)[C@H](Cc2c[nH]cn2)NC(=O)[C@@H](NC(=O)[C@H](CC(C)C)NC(=O)[C@H](CCCNC(=N)N)NC(=O)[C@@H]2CCCN2C(=O)[C@H](CCCNC(=N)N)NC(=O)[C@@H]2CCC(=O)N2)CSSC[C@@H](C(=O)N[C@@H](Cc2ccccc2)C(=O)O)NC(=O)[C@H](CCCC)NC(=O)[C@@H]2CCCN2C(=O)CNC1=O [Example 61, pE-R-P-R-L-C-H-K(Myristoyl)-G-P-Nle-C-F-OH] ([pGlu]RPRLCHK(Myristoyl)GP[Nle]CF-OH; disulfide 6-12) |  |  | 4.33
7 | CCCC[C@@H]1NC(=O)[C@@H]2CCCN2C(=O)CNC(=O)[C@H](CCCCN)NC(=O)[C@H](Cc2cnc[nH]2)NC(=O)[C@@H](NC(=O)[C@H](CC(C)C)NC(=O)[C@H](CCCNC(=N)N)NC(=O)[C@@H]2CCCN2C(=O)[C@H](CCCNC(=N)N)NC(=O)[C@@H]2CCC(=O)N2)CSC/C(=N/OCC(=O)NCCNC(=O)COCCOCCNC(=O)CCC(NC(=O)CCCCCCCCCCCCCCCCC(=O)O)C(=O)O)CSC[C@@H](C(=O)N[C@@H](Cc2ccccc2)C(=O)O)NC1=O (stereo partly drawn) [Example 66] |  |  | 9.93

Next, values leading:

Row | half-life at 5000 ng/mL [1] [h] | half-life (in vitro; [2]) [h] | half-life (in vitro; [3]) [h] | SMILES
8 | 2.72 | 6.78 | 6.78 | CCCC[C@@H]1NC(=O)[C@@H]2CCCN2C(=O)CNC(=O)[C@H](CCCCN)NC(=O)[C@H](Cc2cnc[nH]2)NC(=O)[C@@H](NC(=O)[C@H](CC(C)C)NC(=O)[C@H](CCCNC(=N)N)NC(=O)[C@@H]2CCCN2C(=O)[C@H](CCCNC(=N)N)NC(=O)[C@@H]2CCC(=O)N2)CSSC[C@@H](C(=O)N[C@@H](Cc2ccccc2)C(=O)O)NC1=O [Example 8, (S)-2-((3S,6R,11R,14S,17S,25aS)-14-((1H-imidazol-5-yl)methyl)-17-(4-aminobutyl)-3-butyl-11-((S)-2-((S)-5-guanidino-2-((S)-1-((S)-5-guanidino-2-((S)-5-oxopyrrolidine-2-carboxamido)pentanoyl)pyrrolidine-2-carboxamido)pentanamido)-4-methylpentanamido)-1,4,12,15,18,21-hexaoxodocosahydro-1H-pyrrolo[2,1-j][1,2,5,8,11,14,17,20]dithiahexaazacyclotricosine-6-carboxamido)-3-phenylpropanoic acid] ([pGlu]RPRLCHKGP[Nle]CF-OH; disulfide 6-12)
9 | 3.05 | 4.73 | 4.73 | CCCC[C@@H]1NC(=O)[C@@H]2CCCN2C(=O)CNC(=O)[C@H](CCCCN)NC(=O)[C@H](Cc2c[nH]cn2)NC(=O)[C@@H](NC(=O)[C@H](CC(C)C)NC(=O)[C@H](CCCNC(=N)N)NC(=O)[C@@H]2CCCN2C(=O)[C@H](CCCNC(=N)N)NC(=O)[C@@H]2CCC(=O)N2)CSSC[C@@H](C(=O)N[C@H](Cc2ccccc2)C(=O)O)NC1=O [Example 13, pE-R-P-R-L-C-H-K-G-P-Nle-C-f-OH] ([pGlu]RPRLCHKGP[Nle]C[dF]-OH; disulfide 6-12)
10 | 0.17 | 0.223 | 0.223 | CCCC[C@@H]1NC(=O)[C@@H]2CCCN2C(=O)CNC(=O)[C@H](CCCCN)NC(=O)[C@H](Cc2c[nH]cn2)NC(=O)[C@@H](NC(=O)[C@H](CC(C)C)NC(=O)[C@H](CCCNC(=N)N)NC(=O)[C@@H]2CCCN2C(=O)[C@@H](N)CCCNC(=N)N)CSSC[C@@H](C(=O)N[C@@H](Cc2ccccc2)C(=O)O)NC1=O [Example 16, H-R-P-R-L-C-H-K-G-P-Nle-C-F-OH] (H-RPRLCHKGP[Nle]CF-OH; disulfide 5-11)
11 |  |  | > 16.7 | CCCC[C@@H]1NC(=O)[C@@H]2CCCN2C(=O)CNC(=O)[C@H](CCCCN)NC(=O)[C@H](Cc2c[nH]cn2)NC(=O)[C@H](NC(=O)[C@H](CC(C)C)NC(=O)[C@H](CCCNC(=N)N)NC(=O)[C@@H]2CCCN2C(=O)[C@H](CCCNC(=N)N)NC(=O)[C@@H]2CCC(=O)N2)CSSC[C@H](C(=O)N[C@@H](Cc2ccccc2)C(=O)O)NC1=O [Example 57, pE-R-P-R-L-c-H-K-G-P-Nle-c-F-OH] ([pGlu]RPRL[dC]HKGP[Nle][dC]F-OH; disulfide 6-12)
12 |  |  | > 16.7 | CCCC[C@@H]1NC(=O)[C@@H]2CCCN2C(=O)CNC(=O)[C@H](CCCCN)NC(=O)[C@H](Cc2c[nH]cn2)NC(=O)[C@@H](NC(=O)[C@H](CC(C)C)NC(=O)[C@H](CCCNC(=N)N)NC(=O)[C@@H]2CCCN2C(=O)[C@H](CCCNC(=N)N)NC(=O)[C@@H]2CCC(=O)N2)CSSC[C@@H](C(=O)N[C@@H](Cc2ccccc2)C(N)=O)NC1=O [Example 62, pE-R-P-R-L-C-H-K-G-P-Nle-C-F-NH2] ([pGlu]RPRLCHKGP[Nle]CF-NH2; disulfide 6-12)
13 |  |  | 11.7 | CCCC[C@@H]1NC(=O)[C@@H]2CCCN2C(=O)CNC(=O)[C@H](CCCCN)NC(=O)[C@H](Cc2c[nH]cn2)NC(=O)[C@@H](NC(=O)[C@H](CC(C)C)NC(=O)[C@H](CCCNC(=N)N)NC(=O)[C@@H]2CCCN2C(=O)[C@H](CCCNC(=N)N)NC(=O)[C@@H]2CCC(=O)N2)CSSC[C@@H](C(N)=O)NC1=O [Example 63, pE-R-P-R-L-C-H-K-G-P-Nle-C-NH2] ([pGlu]RPRLCHKGP[Nle]C-NH2; disulfide 6-12)
14 |  |  | 9.93 | CCCC[C@@H]1NC(=O)[C@@H]2CCCN2C(=O)CNC(=O)[C@H](CCCCN)NC(=O)[C@H](Cc2cnc[nH]2)NC(=O)[C@@H](NC(=O)[C@H](CC(C)C)NC(=O)[C@H](CCCNC(=N)N)NC(=O)[C@@H]2CCCN2C(=O)[C@H](CCCNC(=N)N)NC(=O)[C@@H]2CCC(=O)N2)CSC[C@@H](C(=O)N[C@@H](Cc2ccccc2)C(=O)O)NC1=O [Example 65, pE-R-P-R-L-C-H-K-G-P-Nle-C-F-OH]

Source: patent publication US9982017B2, “Synthetic apelin mimetics for the treatment of heart failure” (priority 2012, dated 2018)
